Test results published in ChEMBL document CHEMBL1158997, “New Stemodane Diterpenes from Stemodia maritima” (1992).

Test system: Human alphaherpesvirus 1
Assay: Antiviral activity against HSV1 assessed as plaque reduction at 30 to 200 […]
Type: functional
Set-up: scale not given: the % may be the effect or the level left

## CC1(C)C[C@H](O)C[C@@]2(C)[C@H]1CC[C@H]1C[C@H]3C[C@]12CC[C@]3(C)O[C@@H]1O[C@H](CO)[C@@H](O)[C@H](O)[C@H]1O [STEMODINOSIDE B]
  Activity: 77%
